{
  "source": "patent US8535639B2",
  "about": "“Trifunctional imaging agent for monoclonal antibody tumor-targeted imaging” (The United States of America, as represented by the …, priority 2007, dated 2013)",
  "target": "T1, EGFR-expressing A431 cells (Homo sapiens, UniProt P00533)",
  "T1 construct": "host or cells: A431 cells",
  "T1 sequence (P00533 25-1210)": "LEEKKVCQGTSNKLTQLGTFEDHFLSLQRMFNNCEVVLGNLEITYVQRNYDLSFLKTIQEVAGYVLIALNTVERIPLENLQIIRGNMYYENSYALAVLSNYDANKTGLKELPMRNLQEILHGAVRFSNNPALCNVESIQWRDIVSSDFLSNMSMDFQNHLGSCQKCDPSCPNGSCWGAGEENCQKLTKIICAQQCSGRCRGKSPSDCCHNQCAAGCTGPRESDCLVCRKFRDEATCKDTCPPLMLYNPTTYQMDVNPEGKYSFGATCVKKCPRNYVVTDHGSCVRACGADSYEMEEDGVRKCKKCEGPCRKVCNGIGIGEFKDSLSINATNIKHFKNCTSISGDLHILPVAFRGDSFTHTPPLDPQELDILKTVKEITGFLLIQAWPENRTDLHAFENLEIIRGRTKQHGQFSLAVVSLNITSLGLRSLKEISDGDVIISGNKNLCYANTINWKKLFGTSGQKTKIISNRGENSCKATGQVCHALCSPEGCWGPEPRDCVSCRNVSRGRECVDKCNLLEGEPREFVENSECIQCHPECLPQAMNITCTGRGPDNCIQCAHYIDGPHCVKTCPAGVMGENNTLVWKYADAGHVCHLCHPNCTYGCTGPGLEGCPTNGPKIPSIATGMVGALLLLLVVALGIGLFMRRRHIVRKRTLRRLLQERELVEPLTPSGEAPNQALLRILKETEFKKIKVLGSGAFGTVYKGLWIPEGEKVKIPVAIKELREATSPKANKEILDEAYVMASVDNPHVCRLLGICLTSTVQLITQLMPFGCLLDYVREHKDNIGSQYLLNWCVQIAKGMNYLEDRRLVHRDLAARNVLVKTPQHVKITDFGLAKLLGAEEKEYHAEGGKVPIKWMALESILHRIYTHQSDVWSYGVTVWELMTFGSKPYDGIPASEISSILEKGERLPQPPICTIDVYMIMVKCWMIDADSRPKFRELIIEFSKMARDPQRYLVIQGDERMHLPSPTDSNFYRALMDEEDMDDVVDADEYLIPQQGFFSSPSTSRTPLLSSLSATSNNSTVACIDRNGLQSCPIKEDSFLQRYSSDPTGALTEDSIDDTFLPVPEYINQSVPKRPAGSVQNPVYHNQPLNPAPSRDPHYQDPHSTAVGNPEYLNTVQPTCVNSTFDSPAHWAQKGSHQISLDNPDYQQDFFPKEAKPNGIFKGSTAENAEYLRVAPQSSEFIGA",
  "assay": "Confocal fluorescence microscopy binding",
  "assay_type": "cell-based",
  "settings": "10 ug/mL, 2 hr at 37° C.",
  "protocol": "A431, SKOV3, and NIH3T3 cells were obtained from ATCC (Manassas, Va.). The NIH3T3 cells were transfected with HER2 genes (3T3/HER2+), in order to overexpress HER2 receptors (Di Fiore et al., Science 1987, 237, 178-182). All of the cell lines were grown at 37° C. in the presence of 5% CO2 in DMEM medium supplemented with 1% L-glutamine, and 5% FBS. For the confocal fluorescence microscopy experiments cells were plated in Lab-Tek chambered slides (#178599 Nalge Nunc) at an appropriate dilution and allowed to attach overnight at 37° C. prior to treatment. […] The individual cell lines seeded on chambered slides with 60-80% confluency were incubated for 2 hr at 37° C. in the dark. After incubation the cell culture medium was removed and slides were washed three times with PBS (pH=7.4) and immediately fixed in 4% paraformaldehyde prepared in PBS (pH=7.4) for 5 min at room temperature. Fluorescent mounting medium (S3023, DakoCytomation) was added at the time the slide was covered with a cover glass to stabilize the fluorophores before and during confocal microscopy. […] Fluorescence (Cy5.5 or Cy7) and DIC images were collected simultaneously using a 63x Plan-Apochromat 1.4 NA oil immersion objective and a long pass 650 nm emission filter. […]",
  "data": [
    {"smiles": "CC[N+]1=C(/C=C/C=C/C=C/C=C2/N(CCCCCC(=O)N[C@@H](CCCCNC(=O)C3CCC(CN4C(=O)CC(SCCCC(=N)NC)C4=O)CC3)C(=O)Nc3ccc(C[C@H](CN(CC(=O)O)[C@H]4CCCC[C@@H]4N(CC(=O)O)CC(=O)O)N(CC(=O)O)CC(=O)O)cc3)c3ccc(S(=O)(=O)O)cc3C2(C)C)C(C)(C)c2cc(S(=O)(=O)[O-])ccc21", "note": "(stereo partly shown) [imaging agent 11]", "values": [
      {"measurement": "binding / fluorescent labeling", "result": "specifically labels"}
    ]}
  ]
}
